Test results as given in US11656221B2, “Methods to identify modulators of actin-binding proteins” (Regents of the University of Minnesota, priority 2019, dated 2023).
“Also recorded” adds a separate entry of the source. Read-outs that look alike come from different tables or passages of the source.

Experiments:
[1] = molecular target: T1, Lifeact-mCherry binding to F-actin (Oryctolagus cuniculus, UniProt P68135); assay: F-actin and Lifeact-mCherry co-sedimentation assay; parameters: species or system New Zealand white rabbit (Oryctolagus cuniculus); conditions: 10 μM
T1 construct: Actin was purified from acetone powder derived from the psoas muscle; made in house; host or cells: actin from rabbit psoas muscle; Lifeact-mCherry from E. coli, pE-SUMOpro
Description: Actin was purified from acetone powder derived from the psoas muscle of New Zealand white rabbit (Oryctolagus cuniculus). Filamentous (F)-actin was stored for up to 3 days on ice before use in binding assays. Within an hour of the binding assay, the F-actin was clarified at 100,000×g at 4° C. for 10 min prior to setting up binding assays. The L253P β-III-spectrin ABD was expressed in E. coli BL21(DE3) (Novagen). The ABD was purified and the His-SUMO tag proteolytically removed, as previously described, except size-exclusion chromatography was not performed due to the high purity of the ABD protein. Lifeact-mCherry protein was similarly prepared. A Bradford assay was performed to determine clarified F-actin and ABD protein concentrations.
F-actin and ABD binding assays were performed as previously described. In brief, binding assays used 1 μM ABD protein, 1 μM F-actin and 1-50 μM compound (as indicated) or DMSO control for a total reaction volume of 60 μL in F-buffer containing 10 mM Tris, pH 7.5, 150 mM NaCl, 0.5 mM ATP, 2 mM MgCl2, and 1 mM DTT. Following 30 min incubation at room temperature (21° C.). F-actin was pelleted using centrifugation at 100,000×g at 25° C. for 30 min. Unbound ABD in the supernatant was measured following SDS-PAGE and Coomassie blue staining in accord. In addition, control co-sedimentations assays that lacked actin were performed to test if compounds cause ABD aggregation. F-actin and Lifeact-mCherry binding assays were undertaken with 2 μM Lifeact-mCherry, 30 μM F-actin and 1-50 μM compound (as indicated) or DMSO control for a total reaction volume of 80 μL in F-buffer. For a no-actin binding control, an assay sample with no F-actin was also set up. Binding reactions were allowed to reach equilibrium at room temperature (21° C.) for 30 min and then F-actin was pelleted by centrifugation at 100,000×g at 25° C. for 30 min. The amount of unbound Lifeact-mCherry was sampled by loading 7 μL of spin supernatant on a low volume black bottom 384-well plate (Greiner). Amount of mCherry was determined by acquiring fluorescence spectrum peak intensity at ˜600 nm using a spectral unmixing plate reader (Fluorescence Innovations, Inc) equipped with a 532 nm laser (Laserglow Technologies, Ontario, Canada) for excitation, 532 nm longpass filter for emission, and PMT for emission detection. The fraction of Lifeact-mCherry bound to F-actin was determined by subtracting from one the fraction of supernatant fluorescence intensity relative to the no-actin control sample, using the following equation:
[formula] • Where Fcontrol/DMSO is the peak mCherry fluorescence of assay samples containing compound or DMSO control, and Fno-actin is the peak mCherry fluorescence of assay samples that contained no F-actin. 2.9 Trypan Blue Cell Viability Assays

[2] = molecular target: T2, ternary complex consisting of GFP-ABD-L253P, Lifeact-mCherry, and actin (Homo sapiens, UniProt O15020, L253P); assay: Primary live-cell time-resolved FRET assay (GFP-ABD-L253P plus Lifeact-mCherry); assay type: cell-based; conditions: LOPAC compounds 10 μM, 120 min
T2 construct: L252P β-III-spectrin (human) ABD residues 1-284; expressed in transfected cells; host or cells: HEK293-6E, pTT5 vector, transient
T2 sequence (O15020 1-284 L253P, one chain of several): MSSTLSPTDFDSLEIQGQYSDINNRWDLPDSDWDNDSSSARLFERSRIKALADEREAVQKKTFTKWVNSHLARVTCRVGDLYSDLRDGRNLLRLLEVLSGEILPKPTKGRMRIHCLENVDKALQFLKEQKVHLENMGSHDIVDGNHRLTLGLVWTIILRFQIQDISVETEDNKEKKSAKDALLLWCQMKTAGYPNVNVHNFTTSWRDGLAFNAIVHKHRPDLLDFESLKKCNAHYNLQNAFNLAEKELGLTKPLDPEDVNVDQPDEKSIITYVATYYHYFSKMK

[3] = tested on: HEK293-6E cells; assay: Trypan blue cell viability assay; assay type: cell-based; conditions: 10 μM, 3 hr incubation
Description: HEK293-6E cell viability was measured using trypan blue (0.03%) staining and a Countess Automated Cell counter (Invitrogen). Non-transfected HEK293-6E cells were spun at 100×g for 5 min at 21° C., and resuspended in 10 mL of PBS. The centrifugation and resuspension were repeated twice more. Final cell concentration was 1×10^6 cells/mL. Cells were incubated with 2% DMSO, or 3-50 μM compound (as indicated) for 3 hrs at room temperature (21° C.). After addition of 100 μL of 0.06% trypan blue solution in PBS, 10 μL was loaded on a slide and injected into the cell counter, and cell viability was measured.

[4] = tested on: mammalian cells; conditions: cited from earlier work
[5] = molecular target: T3, GFP-ABD-L253P and Lifeact-mCherry on actin filaments (Homo sapiens, UniProt O15020, L253P); assay: Live-cell FRET assay after actin depolymerization (Example 2); assay type: cell-based; conditions: 60 min treatment
T3 construct: expressed in transfected cells; host or cells: HEK293.2sus (ATCC CRL-1573.3), pcDNA3.1(+), transient
T3 sequence (O15020 1-284 L253P): as the sequence (O15020 1-284 L253P, one chain of several) above
From the text: Expression constructs. FRET donor and acceptor constructs were generated using the plasmid expression vector, pcDNA3.1(+) (Invitrogen). The coding sequence for Lifeact-mCherry was PCR amplified from mCherry-Lifeact-7 (Addgene, plasmid #54491) using the oligonucleotides, […] and […], and ligated into pcDNA3.1(+) using the restriction enzymes Kpn1 and Xba1, resulting in the construct pcDNA3.1-Lifeact-mCherry. To generate GFP-ABD expression constructs, a mEGFP DNA construct with flanking Kpn1 and EcoR1 restriction sites, was synthesized (Integrated DNA Technologies). The mEGFP sequence was subcloned into pcDNA3.1(+) using Kpn1 and EcoR1 restriction enzymes, resulting the in the construct, pcDNA3.1-GFP. DNA sequences encoding the wild-type or L253P human β-III-spectrin ABD (amino acids 1-284, NCBI reference sequence NP_008877.1) were PCR amplified from pE-SUMO-ABD-WT or -L253P (Avery, 2017 PMID: 29116080) using the oligonucleotides […] and […], and inserted into pcDNA3.1-GFP using EcoR1 and Xba1 restriction enzymes. The resulting constructs, pcDNA3.1-GFP-ABD-WT and -L253P, along with pcDNA3.1-Lifeact-mCherry, were sequence verified. […]
FRET Measurement. FRET in live cells was measured using a Fluorescence Lifetime (FLT) Plate Reader (FLTPR) (Fluorescence Innovations). […]

[6] = molecular target: actin filaments; conditions: cited from earlier work

## Clc1ccc(C(c2ccc(Cl)cc2)n2cc[n+](CC(OCc3ccc(Cl)cc3Cl)c3ccc(Cl)cc3Cl)c2)cc1 (centres unmarked) [calmidazolium]
[1]
  effect on Lifeact-mCherry binding with actin: decreased actin-Lifeact co-sedimentation; also recorded: reduce Lifeact-mCherry binding with actin
[2]
  effect on FRET in primary screen (Hit, 4SD threshold): decrease FRET
[3]
  effect on HEK293-6E cell viability: dramatically reduced cell viability; also recorded: reduces HEK293-6E cell viability
[4]
  reported effect on cell viability: reported to reduce cell viability

## C/C1=C/C(=O)O[C@@H]2C[C@@H](CC[C@H](C)/C=C\C=C\CC1)O[C@@](O)([C@@H]1CSC(=O)N1)C2 [latrunculin A]
[5]
  effect on FRET between GFP-ABD-L253P and Lifeact-mCherry: significantly reduce FRET; also recorded: decrease in FRET

## C/C1=C/C(=O)O[C@@H]2C[C@@H](CC[C@H](C)/C=C\CC1)O[C@@](O)([C@@H]1CSC(=O)N1)C2 [latrunculin B]
[5]
  effect on FRET between GFP-ABD-L253P and Lifeact-mCherry: significantly reduce FRET; also recorded: decrease in FRET

## K255E α-actinin-4: α-actinin-4 carrying the disease mutation K255E
[6]; mutant ABD proteins
  Kd: 0.046 µM

## wild-type: wild-type dystrophin, comparator for L212P
[6]; wild-type dystrophin, Singh et al.
  Kd: ~45 µM
